Source: ChEMBL document CHEMBL1154731, “Theoretical and structural analysis of the active site of the transcriptional regulators LasR and TraR, using molecular docking methodology for identifying potential analogues of acyl homoserine lactones (AHLs) with anti-quorum sensing activity” (Eur J Med Chem, 2010)

Legend:
[1] = biological target: T1, Transcriptional activator protein LasR (Pseudomonas aeruginosa (strain ATCC 15692 / PAO1 / 1C / PRS 101 / LMG12228), UniProt P25084); experiment: Inhibition of Pseudomonas aeruginosa LasR
T1 sequence (P25084 whole entry): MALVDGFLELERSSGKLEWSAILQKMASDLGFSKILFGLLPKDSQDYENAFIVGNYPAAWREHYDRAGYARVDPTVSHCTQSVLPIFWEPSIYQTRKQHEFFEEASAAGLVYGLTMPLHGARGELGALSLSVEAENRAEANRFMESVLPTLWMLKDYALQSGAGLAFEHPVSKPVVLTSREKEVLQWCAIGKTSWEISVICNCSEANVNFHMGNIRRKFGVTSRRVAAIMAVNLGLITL

[2] = biological target: T2, Transcriptional activator protein TraR (Agrobacterium tumefaciens, UniProt P33905); experiment: Inhibition of Agrobacterium tumefaciens TraR
T2 sequence (P33905 whole entry): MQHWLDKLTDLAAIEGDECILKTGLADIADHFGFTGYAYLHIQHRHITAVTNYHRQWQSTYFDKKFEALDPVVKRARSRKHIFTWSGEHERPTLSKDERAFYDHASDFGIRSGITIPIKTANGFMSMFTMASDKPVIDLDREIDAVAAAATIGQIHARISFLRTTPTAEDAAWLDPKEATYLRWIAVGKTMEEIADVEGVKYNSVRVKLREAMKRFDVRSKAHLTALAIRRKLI

SMILES | IC50 [1] [µM] | IC50 [2] [µM]
O=C(CC(=O)N[C@H]1CCOC1=O)Cc1ccccc1 | 53.6 | 0.5
O=C(CCCc1c[nH]c2ccccc12)N[C@H]1CCOC1=O | 14.8 | 1.1
O=C(CC1C=CCC1)N[C@H]1CCOC1=O (stereo partly drawn) | 33.1 | 1
CCCCCCC(=O)N[C@H]1CCOC1=O | 51.5 | 0.13
